Here are results for six compounds from patent US10111881B2 (priority 2016, dated 2018).

For data set [1], the system named is HeLa cells. It counts as cell-based, human. As to conditions: for Dextran Uptake: 50 μM.
The test system of data set [2] is Baby hamster kidney fibroblasts (BHK) cells. The experiment in a line: Acridine orange assay for acidification blockers. In kind it is cell-based.
The subject of data set [3] is HeLa cells.
Data set [4] deals with MARV. The experiment in a line: microbe, parasite or virus in culture. It counts as cell-based, Marburgvirus (Musoke strain).
Data set [5] deals with EBOV. As to the kind of experiment: organism not typed. It counts as cell-based, Zaire Ebolavirus (Mayinga strain).
Data set [6] relates to EBOV. As to the kind of experiment: microbe, parasite or virus in culture. It counts as cell-based, Zaire Ebolavirus (Mayinga strain).
The subject of data set [7] is EBOV. It counts as cell-based, Zaire Ebolavirus (Mayinga strain).
Data set [8] has as its system HeLa cells. It counts as cell-based, human. As to conditions: for Transferrin uptake: 50 μM.
For data set [9], the system named is Cathepsin. The experiment in a line: Cathepsin cleavage of GP.
For data set [10], the target named is T1, NPC1 C-loop (Homo sapiens, UniProt O15118).
T1 construct: C-loop
T1 sequence (O15118 372-620 limits assumed): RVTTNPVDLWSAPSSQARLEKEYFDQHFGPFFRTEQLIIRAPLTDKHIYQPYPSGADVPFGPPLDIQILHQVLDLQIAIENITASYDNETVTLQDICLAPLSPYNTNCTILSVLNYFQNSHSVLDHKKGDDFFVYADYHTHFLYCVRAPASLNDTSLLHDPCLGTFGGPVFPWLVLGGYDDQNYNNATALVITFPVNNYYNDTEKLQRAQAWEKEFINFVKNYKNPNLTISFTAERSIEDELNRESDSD
As to the kind of experiment: NPC1 C-loop binding.

The test system of data set [11] is IL-1-Beta. As to conditions: PubChem / MLSMR data; cited from earlier work.
The test system of data set [12] is HeLa cells. In kind it is cell-based, human.
The target of data set [13] is MDM2/A (Homo sapiens, UniProt Q00987). The following applies: MLSMR screening network data; cited from earlier work.
Chain of MDM2/A (Q00987 whole entry, species assumed): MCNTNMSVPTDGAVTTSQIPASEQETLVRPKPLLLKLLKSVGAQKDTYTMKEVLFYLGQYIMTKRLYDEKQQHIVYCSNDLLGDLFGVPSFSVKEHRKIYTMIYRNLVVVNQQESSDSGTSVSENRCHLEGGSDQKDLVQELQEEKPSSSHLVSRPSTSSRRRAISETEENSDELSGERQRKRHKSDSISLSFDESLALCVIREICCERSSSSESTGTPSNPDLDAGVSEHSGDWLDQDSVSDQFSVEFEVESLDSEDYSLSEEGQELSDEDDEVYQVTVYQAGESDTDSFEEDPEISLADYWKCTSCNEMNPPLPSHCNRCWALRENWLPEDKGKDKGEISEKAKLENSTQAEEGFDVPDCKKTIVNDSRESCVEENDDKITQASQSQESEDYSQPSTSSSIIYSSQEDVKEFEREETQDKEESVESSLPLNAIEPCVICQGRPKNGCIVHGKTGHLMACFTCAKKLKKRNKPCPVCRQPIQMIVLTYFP
For data set [14], the target named is T2, MDM4/1 (Homo sapiens, UniProt O15151).
T2 sequence (O15151 1-490): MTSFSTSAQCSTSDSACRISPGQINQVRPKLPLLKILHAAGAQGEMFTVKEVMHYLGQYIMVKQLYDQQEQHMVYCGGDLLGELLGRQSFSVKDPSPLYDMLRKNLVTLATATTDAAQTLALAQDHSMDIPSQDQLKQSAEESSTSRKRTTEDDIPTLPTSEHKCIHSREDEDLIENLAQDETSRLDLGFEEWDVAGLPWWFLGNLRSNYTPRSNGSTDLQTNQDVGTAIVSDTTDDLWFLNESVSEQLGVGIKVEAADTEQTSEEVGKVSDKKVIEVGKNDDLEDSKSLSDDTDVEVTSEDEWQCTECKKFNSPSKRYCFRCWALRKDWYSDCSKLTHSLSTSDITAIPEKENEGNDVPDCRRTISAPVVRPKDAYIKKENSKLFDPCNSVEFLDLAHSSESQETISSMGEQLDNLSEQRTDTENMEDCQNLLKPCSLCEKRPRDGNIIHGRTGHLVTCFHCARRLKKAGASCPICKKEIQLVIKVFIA
As to conditions: MLSMR screening network data; cited from earlier work.

Data set [15] deals with EEA1-positive vesicles. It counts as cell-based, human.
In data set [16] the test system is LAMP1-positive vesicles. In kind it is cell-based, human.
Setting [17] is: read-out: Activity in macrophages IC50.

Where two headings read alike, the source gives them in different places. Where only a bound is given, the exact number is not on record here.

For the compound `CCN(c1nc(N)c(C(=O)NC(=N)N)nc1Cl)C(C)C` [EIPA, reference compound], in [1], the “reduction of uptake of fluorescently labeled dextran” value was found to be 95%. Further, in data set [2], the “effect on endosomal acidification” value is recorded as “decreases endosomal acidification”. The “toxic concentration (not toxic up to / toxic at)” value in [3] came out at 37 µM.
Turning to `C=C(c1ccc(O)cc1)c1ccc(O)cc1` [MLS000078751], in data set [4], the “Curve class (MARV)” value is listed as 1.5 and the “MARV (Curve class)” value stood at 1.5. Besides, in data set [4] (read-out: IC-50 (MARV)), the IC50 amounted to 6.13 µM. The IC50 in data set [4] (read-out: MARV HeLa IC50) turned out to be 6.1 µM. Also, in data set [5], the “Curve Class (EBOV)” value stood at 1.3 and the “EBOV (curve class)” value is given as 1.3. The IC50 in data set [5] (read-out: EBOV HeLa IC50) amounted to 25.6 µM. Moreover, the IC50 in data set [5] (read-out: IC-50 (EBOV)) amounted to 25.6 µM. Besides, in [6] (setting [17]), the IC50 was around 25 µM. In [7], the Surface interaction result is on record as “−”, the Uninfected cell number entry is “+”, the “decrease in total viral particles bound to cell surface” value stood at 53% and the “virus particle uptake” value is “reduced particle uptake”. Moreover, the “Dextran Uptake” value in data set [1] was determined as 0. Moreover, the Transferrin uptake in data set [8] is given as 0. Moreover, the “Acidification Block” value in data set [2] is recorded as “−”. The compound also gave a Cathepsin clevage in [9] of 0. Further, in data set [10], the “NPC1 C-loop binding” value turned out to be 0. In addition, in data set [11], the “secretion of IL-1-Beta” value is “inhibit secretion of IL-1-Beta”.
As to `N#Cc1c(NCCN)nc(-c2ccccc2)c2c1CCCC2` [MLS000534476], in data set [4], the “Curve class (MARV)” value turned out to be 1.3 and the “MARV (Curve class)” value worked out at 1.3. Also, in data set [4] (read-out: IC-50 (MARV)), the IC50 came to 6.21 µM. In data set [4] (read-out: MARV HeLa IC50), the IC50 was 6.2 µM. Further, in data set [5], the “Curve Class (EBOV)” value was determined as 1.6 and the “EBOV (curve class)” value worked out at 1.6. In addition, the IC50 in [5] (read-out: EBOV HeLa IC50) was 24.4 µM. Besides, the IC50 in [5] (read-out: IC-50 (EBOV)) was 24.4 µM. For the same compound, the IC50 in data set [6] (setting [17]) came out at 3.6 µM. For the same compound, in data set [7], the Surface interaction entry was “−”, the Uninfected cell number entry was “+”, the “decrease in total viral particles bound to cell surface” value is on record as 55% and the “virus particle uptake” value is recorded as “reduced particle uptake”. For the same compound, in data set [12], the “decrease in transferrin binding to cells” value is given as above 55%. Also, the “Dextran Uptake” value in [1] is given as 0. The Transferrin uptake result in data set [8] is reported as “−”. For the same compound, in data set [2], the “Acidification Block” value is given as “+” and the “effect on endosomal acidification” value was “affected endosomal acidification”. For the same compound, in [9], the Cathepsin clevage is recorded as 0 and the “GP cleavage by cellular proteases” value is on record as “reduced GP cleavage”. Also, the “NPC1 C-loop binding” value in [10] came out at 0. Moreover, the “inhibition of MDM2/A” value in [13] is “identified as inhibitors”. The “inhibition of MDM4/1” value in data set [14] is recorded as “identified as inhibitors”.
Regarding `CC(C)(C)c1nc2ccccc2c2nnc(SCC(=O)Nc3nccs3)n12` [MLS000555232], in [4], the “Curve class (MARV)” value turned out to be 1.3 and the “MARV (Curve class)” value amounted to 1.3. In addition, the IC50 in data set [4] (read-out: IC-50 (MARV)) turned out to be 6.26 µM. In addition, the IC50 in data set [4] (read-out: MARV HeLa IC50) came to 6.3 µM. In data set [5], the “Curve Class (EBOV)” value stood at 1.6 and the “EBOV (curve class)” value was determined as 1.6. The IC50 in [5] (read-out: EBOV HeLa IC50) worked out at 1.7 µM. For the same compound, the IC50 in data set [5] (read-out: IC-50 (EBOV)) was determined as 1.74 µM. In data set [6] (setting [17]), the IC50 is 9.4 µM. Besides, in data set [7], the Surface interaction result was “+”, the Uninfected cell number was found to be 0, the “enhancement of virus interaction with cells” value worked out at 89% and the “increase in virus particle binding to the cell surface” value is recorded as around 2 fold. Besides, the “Dextran Uptake” value in [1] turned out to be 0. Moreover, in data set [8], the “effect on transferrin uptake” value is “do not inhibit transferrin uptake” and the Transferrin uptake worked out at 0. Moreover, in data set [15], the “Effect on EEA1” value is “−” and the “reduction of colocalization of EBOV VLPs with EEA1-positive vesicles” value is listed as 77%. Also, in data set [16], the “Effect on LAMP1” value is given as “−” and the “reduction of number of VLPs present in LAMP1-positive vesicles” value was 89%. Besides, the “Acidification Block” value in [2] is “−”. The compound also gave a Cathepsin clevage in [9] of 0. The “NPC1 C-loop binding” value in data set [10] came to 0. Moreover, the “inhibition of MDM2/A” value in data set [13] is recorded as “identified as inhibitors”. In addition, the “inhibition of MDM4/1” value in data set [14] is recorded as “identified as inhibitors”.
For `Cc1cc(N2CCN(C)CC2)nc2ccc(NC(=S)NCCCN3CCc4ccccc4C3)cc12` [MLS000730532], in data set [4], the “Curve class (MARV)” value was 1.3 and the “MARV (Curve class)” value is on record as 1.3. Moreover, the IC50 in data set [4] (read-out: IC-50 (MARV)) was determined as 1.93 µM. The IC50 in [4] (read-out: MARV HeLa IC50) was found to be 1.9 µM. For the same compound, the IC50 in [5] (read-out: EBOV HeLa IC50) came to 1.6 µM. In addition, in data set [5] (read-out: IC-50 (EBOV)), the IC50 was determined as 1.56 µM. In data set [6] (setting [17]), the IC50 was 9.5 µM. Also, in data set [7], the Surface interaction was determined as 0, the Uninfected cell number amounted to 0 and the “reduction of number of viral particles inside the cell body” value worked out at 89%. For the same compound, in [1], the “reduction of uptake of fluorescently labeled dextran” value was around 74% and the “Dextran Uptake” value is given as “−”. Besides, in [8], the “effect on transferrin uptake” value is listed as “impaired uptake of this marker, comparable to chlorpromazine” and the Transferrin uptake entry is reported as “−”. In [2], the “Acidification Block” value is “+” and the “effect on endosomal acidification” value is reported as “affected endosomal acidification”. In data set [9], this compound gave a Cathepsin clevage of 0. Besides, in data set [10], the “NPC1 C-loop binding” value was found to be 0. Moreover, the “secretion of IL-1-Beta” value in [11] is “inhibit secretion of IL-1-Beta”.
In the case of `Cc1cc(-c2nn(-c3ccccc3F)cc2CN2CCN(c3ccncc3)CC2)c(C)s1` [MLS000733230, 1-[[3-(2,5-dimethylthiophen-3-yl)-1-(2-fluorophenyl)pyrazol-4-yl]methyl]-4-pyridin-4-ylpiperazine], in [4], the “Curve class (MARV)” value amounted to 1.3 and the “MARV (Curve class)” value is recorded as 1.3. In addition, the IC50 in data set [4] (Orthomarburgvirus, HeLa, read-out: IC-50 (MARV)) amounted to 11.7 µM. In [4] (Orthomarburgvirus, HeLa, read-out: MARV HeLa IC50 (μM)), the IC50 was determined as 11.7 µM. Besides, in data set [5], the “Curve Class (EBOV)” value is reported as 1.3; the “EBOV (curve class)” value came to 1.3; the “potency for Ebolavirus inhibition, times better than EIPA” value worked out at 7 times. For the same compound, in data set [5] (HeLa, read-out: EC50 for Ebolavirus inhibition), the EC50 was 6.7 µM. Also, in data set [5] (Zaire ebolavirus, HeLa, read-out: EBOV HeLa IC50 (μM)), the IC50 turned out to be 6.7 µM. Moreover, the IC50 in data set [5] (Zaire ebolavirus, HeLa, read-out: IC-50 (EBOV)) was 6.7 µM. The IC50 in [6] (Zaire ebolavirus, Macrophage, read-out: Activity in macrophages IC50 (μM)) is 4.4 µM. Moreover, in data set [7], the Surface interaction is listed as 0, the Uninfected cell number was found to be 0 and the “reduction of number of viral particles inside the cell body” value is 91%. Also, in [1], the “reduction of uptake of fluorescently labeled dextran” value is listed as “approximately 91%” and the “Dextran Uptake” value is “−”. Besides, in data set [8], the “effect on transferrin uptake” value is “no effect on transferrin uptake” and the Transferrin uptake amounted to 0. For the same compound, in [2], the “Acidification Block” value is “+” and the “effect on endosomal acidification” value is recorded as “affected endosomal acidification”. The compound further gave a Cathepsin clevage in data set [9] of 0. For the same compound, the “NPC1 C-loop binding” value in [10] came out at 0. The “toxic concentration (not toxic up to / toxic at)” value in data set [3] (human) is above 100 µM. Moreover, the “secretion of IL-1-Beta” value in data set [11] is reported as “inhibit secretion of IL-1-Beta”.

Broadly, the EC50 is the concentration needed to bring the measured effect to its halfway point.
